Structures are written as SMILES.

The subject of this assay is castrated male Sprague Dawley rats. Put plainly: Ventral Prostate and Seminal Vesicle Weight In Vivo Assay. Further: key: active: the non weight adjusted prostate weight was ≦40 mg or the % Inhibition prostate weight, body weight adjusted was ≧40%@2 mg/day dosage; inactive: did not meet the specified criteria defined above. Particulars: inhibition of testosterone-enhanced prostate weight; immature castrated rats, once daily for five days, usually orally 40 mg/kg, with testosterone propionate 2 mg/kg s.c. Here is the method:
Ventral Prostate and Seminal Vesicle Weight In Vivo Assay
Immature (approximately 50 g) castrated male Sprague Dawley rats (Charles River) were treated once daily for five days with test compound (usually given orally at 40 mg/kg in a volume of 0.3 mL, in 30% cyclodextrin or 0.5% methylcellulose vehicle) and with testosterone propionate (given subcutaneously by injection at the nape of the neck at 2 mg/kg, in a volume of 0.1 mL in sesame oil). On the sixth day, the rats were euthanized by asphyxiation in carbon dioxide. Ventral prosatates and seminal vesicles were removed and their wet weights determined. Test compound activity was determined as the percent inhibition of testosterone-enhanced tissue weights, with a vehicle-treated control group set to zero percent and a testosterone alone-treated control group set to 100%.
Representative compounds of the present invention were tested according to the procedure described, with results as listed in Table 7 below. A test compound is listed as “active” if the non weight adjusted prostate weight was ≦40 mg or the % Inhibition prostate weight, body weight adjusted was ≧40%@2 mg/day dosage. ID50's, if determined, of ≦15 mg/day also indicated an “active” compound.
For the compound `OC(c1nc2cc(Cl)c(Cl)cc2[nH]1)C(F)(F)F` (racemic) [Compound 59, 1-(5,6-DiChloro-1H-benzoimidazol-2-yl-)2,2,2-trifluoro-ethanol], the outcome was active. On to `ON=C(c1nc2cc(Cl)c(Cl)cc2[nH]1)C(F)(F)F` (racemic) [Compound 141, 1-(5,6-Dichloro-1H-benzoimidazol-2-yl)-2,2,2-trifluoro-ethanone Oxime], for which the result was active. For `CC(O)(Cc1cccc(F)c1)c1nc2cc(Cl)c(Cl)cc2[nH]1` (centres unmarked) [Compound 3] the value was “inactive”; for `CC(O)(CO)c1nc2cc(Cl)c(Cl)cc2[nH]1` (centres unmarked) [Compound 4], “active”. Take `Cn1c(C(C)(O)CC#N)nc2cc(Cl)c(Cl)cc21` (centres unmarked) [Compound 8]: the outcome was active. As to `Cn1c(C(C)(O)C(F)(F)F)nc2cc(Cl)c(Cl)cc21` (centres unmarked) [Compound 9], the result was active. In the case of `CCOCC(C)(O)c1nc2cc(Cl)c(Cl)cc2n1C` (centres unmarked) [Compound 10], the outcome was inactive.

For `CCn1c(C(C)(O)C(F)(F)F)nc2cc(Cl)c(Cl)cc21` (centres unmarked) [Compound 13], the result was active.

For the compound `CCCn1c(C(C)(O)C(F)(F)F)nc2cc(Cl)c(Cl)cc21` (centres unmarked) [Compound 14], the outcome was active. With `CCCCn1c(C(C)(O)C(F)(F)F)nc2cc(Cl)c(Cl)cc21` (centres unmarked) [Compound 15], the outcome was active. Under `CCn1c(C(C)(O)CC#N)nc2cc(Cl)c(Cl)cc21` (centres unmarked) [Compound 16] stands “active”; under `CCn1c(C(C)(O)COC)nc2cc(Cl)c(Cl)cc21` (centres unmarked) [Compound 17], “inactive”. In the case of `Cn1c(C(C)(O)CCl)nc2cc(Cl)c(Cl)cc21` (centres unmarked) [Compound 18, 1-Chloro-2-(5,6-dichloro-1-methyl-1H-benzoimidazol-2-yl)-propan-2-ol], the result was active. Take `CC(O)(c1nc2cc(Cl)c(Cl)cc2[nH]1)C(F)(F)F` (centres unmarked) [Compound 20]: the outcome was inactive.

Consider `CCSCC(C)(O)c1nc2cc(Cl)c(Cl)cc2n1C` (centres unmarked) [Compound 25, 2-(5,6-Dichloro-1-methyl-1H-benzoimidazol-2-yl)-1-ethylsulfanyl-propan-2-ol], for which the result was active. As for `CC(O)(Cc1nc2cc(Cl)c(Cl)cc2[nH]1)C(F)(F)F` (centres unmarked) [Compound 27, 3-(5,6-Dichloro-2-1H-benzoimidazol-2-yl)-1,1,1-trifluoro-2-methyl-propan-2-ol], the result was active.

Consider `COC(C)(CC#N)c1nc2cc(Cl)c(Cl)cc2n1C` (centres unmarked) [Compound 28], for which the outcome was active. `CCSCC(C)(O)c1nc2cc(Cl)c(Cl)cc2n1CC` (centres unmarked) [Compound 31, 2-(5,6-Dichloro-1-ethyl-1H-benzoimidazol-2-yl)-1-ethylsulfanyl-propan-2-ol]: the outcome was active.

With `Cn1c(CC(C)(O)C(F)(F)F)nc2cc(Cl)c(Cl)cc21` (centres unmarked) [Compound 33], the outcome was active. Under `CCn1c(CC(C)(O)C(F)(F)F)nc2cc(Cl)c(Cl)cc21` (centres unmarked) [Compound 37] stands “active”. Under `FC(F)(F)Cc1nc2cc(Cl)c(Cl)cc2[nH]1` [Compound 41, 5,6-Dichloro-2-(2,2,2-trifluoro-ethyl)-1H-benzoimidazole] stands “active”. As to `CCn1c(C(C)(O)CSCC(F)(F)F)nc2cc(Cl)c(Cl)cc21` (centres unmarked) [Compound 44, 2-(5,6-Dichloro-1-ethyl-1H-benzoimidazol-2-yl)-1-(2,2,2-trifluoro-ethylsulfanyl)-propan-2-ol], the result was inactive.

As for `Cn1c(C(C)(O)CS(=O)(=O)Cc2ccccc2)nc2cc(Cl)c(Cl)cc21` (centres unmarked) [Compound 45, 2-(5,6-Dichloro-1-methyl-1H-benzoimidazol-2-yl)-1-phenylmethanesulfonyl-propan-2-ol], the result was inactive. For `CCn1c(C(C)(O)CS(=O)(=O)CC)nc2cc(Cl)c(Cl)cc21` (centres unmarked) [Compound 48, 2-(5,6-Dichloro-1-ethyl-1H-benzoimidazol-2-yl)-1-ethanesulfonyl-propan-2-ol] the value was “active”; for `CCn1c(C(C)(O)CS(=O)(=O)CC(F)(F)F)nc2cc(Cl)c(Cl)cc21` (centres unmarked) [Compound 49, 2-(5,6-Dichloro-1-ethyl-1H-benzoimidazol-2-yl)-1-(2,2,2-trifluoro-ethanesulfonyl)-propan-2-ol], “inactive”; for `CC(=O)Nc1ccc(SCC(C)(O)c2nc3cc(Cl)c(Cl)cc3n2C)cc1` (centres unmarked) [Compound 56, N-{4-[2-(5,6-Dichloro-1-methyl-1H-benzoimidazol-2-yl)-2-hydroxy-propylsulfanyl]-phenyl}-acetamide], “inactive”. Regarding `COCn1c(CC(F)(F)F)nc2cc(Cl)c(Cl)cc21` [Compound 57, 5,6-Dichloro-1-methoxymethyl-2-(2,2,2-trifluoro-ethyl)-1H-benzoimidazole], the result was active. For `CSCn1c(CC(F)(F)F)nc2cc(Cl)c(Cl)cc21` [Compound 58, 5,6-Dichloro-1-methylsulfanylmethyl-2-(2,2,2-trifluoro-ethyl)-1H-benzoimidazole], the result was active. For the compound `COC(c1nc2cc(Cl)c(Cl)cc2n1C)C(F)(F)F` (centres unmarked) [Compound 61], the outcome was active. Turning to `CCOC(c1nc2cc(Cl)c(Cl)cc2n1CC)C(F)(F)F` (centres unmarked) [Compound 62], the result was active. `FC(F)(F)Cc1nc2cc(Cl)c(C(F)(F)F)cc2[nH]1` [Compound 68]: the result was active. For the compound `N#Cc1cc2nc(CC(F)(F)F)[nH]c2cc1C(F)(F)F` [Compound 69], the outcome was inactive. For the compound `Cn1c(CC(F)(F)F)nc2cc(Cl)c(Cl)cc21` [Compound 71, 5,6-Dichloro-1-methyl-2-(2,2,2-trifluoro-ethyl)-1H-benzoimidazole], the outcome was active. On to `FC(F)(F)Cc1nc2cc(Cl)c(Cl)cc2n1COc1ccc(Cl)cc1` [Compound 72], for which the result was inactive. With `CS(=O)(=O)Cn1c(CC(F)(F)F)nc2cc(Cl)c(Cl)cc21` [Compound 73, 5,6-Dichloro-1-methanesulfonylmethyl-2-(2,2,2-trifluoro-ethyl)-1H-benzoimidazole], the result was active. `O=C(Cn1c(CC(F)(F)F)nc2cc(Cl)c(Cl)cc21)c1ccccc1` [Compound 74, 2-[5,6-Dichloro-2-(2,2,2-trifluoro-ethyl)-benzoimidazol-1-yl]-1-phenyl-ethanone]: the result was inactive.

Take `O=C(Cn1c(CC(F)(F)F)nc2cc(Cl)c(Cl)cc21)c1ccc(F)cc1` [Compound 75, 2-[5,6-Dichloro-2-(2,2,2-trifluoro-ethyl)-benzoimidazol-1-yl]-1-(4-fluoro-phenyl)-ethanone]: the outcome was active.

As for `O=C(Cn1c(CC(F)(F)F)nc2cc(Cl)c(Cl)cc21)c1ccc([N+](=O)[O-])cc1` [Compound 76, 2-[5,6-Dichloro-2-(2,2,2-trifluoro-ethyl)-benzoimidazol-1-yl]-1-(4-nitro-phenyl)-ethanone], the result was active. For `COc1ccc(C(=O)Cn2c(CC(F)(F)F)nc3cc(Cl)c(Cl)cc32)c(OC)c1` [Compound 77, 2-[5,6-Dichloro-2-(2,2,2-trifluoro-ethyl)-benzoimidazol-1-yl]-1-(2,4-dimethoxy-Phenyl)-ethanone], the outcome was inactive. With `O=C(Cn1c(CC(F)(F)F)nc2cc(Cl)c(Cl)cc21)c1ccc(Br)cc1` [Compound 79, 1-(4-Bromo-phenyl)-2-[5,6-dichloro-2-(2,2,2-trifluoro-ethyl)-benzoimidazol-1-yl]-ethanone], the outcome was inactive.

As to `CCC(=O)Cn1c(CC(F)(F)F)nc2cc(Cl)c(Cl)cc21` [Compound 80, 1-[5,6-Dichloro-2-(2,2,2-trifluoro-ethyl)-benzoimidazol-1-yl]-butan-2-one], the result was active. Consider `CCOC(=O)Cn1c(CC(F)(F)F)nc2cc(Cl)c(Cl)cc21` [Compound 81, [5,6-Dichloro-2-(2,2,2-trifluoro-ethyl)-benzoimidazol-1-yl]-acetic Acid Ethyl Ester], for which the result was inactive. In the case of `O[C@H](c1nc2cc(Cl)c(Cl)cc2[nH]1)C(F)(F)F` [Compound 82, (−)-1-(5,6-DiChloro-1H-benzoimidazol-2-yl-)2,2,2-trifluoro-ethanol], the result was active. On to `O[C@@H](c1nc2cc(Cl)c(Cl)cc2[nH]1)C(F)(F)F` [Compound 83, (+)-1-(5,6-DiChloro-1H-benzoimidazol-2-yl-)2,2,2-trifluoro-ethanol], for which the result was active. In the case of `O=C(Cn1c(CC(F)(F)F)nc2cc(Cl)c(Cl)cc21)c1cc2ccccc2o1` [Compound 84, 1-Benzofuran-2-yl-2-[5,6-dichloro-2-(2,2,2-trifluoro-ethyl)-benzoimidazol-1-yl]-ethanone], the result was inactive. On to `O=C(Cn1c(CC(F)(F)F)nc2cc(Cl)c(Cl)cc21)c1ccc(Cl)cc1` [Compound 85, 1-(4-Chloro-phenyl)-2-[5,6-dichloro-2-(2,2,2-trifluoro-ethyl)-benzoimidazol-1-yl]-ethanone], for which the outcome was inactive. With `COc1cccc(C(=O)Cn2c(CC(F)(F)F)nc3cc(Cl)c(Cl)cc32)c1` [Compound 86, 2-[5,6-Dichloro-2-(2,2,2-trifluoro-ethyl)-benzoimidazol-1-yl]-1-(3-methoxy-phenyl)-ethanone], the result was inactive.

The values above are taken from patent US7566733B2, “Benzimidazole derivatives useful as selective androgen receptor modulators (sarms)” (priority 2004, dated 2009).
